Test results reported in patent US11712456B2, “Hemp extract for treatment of pain in animals” (Portland Technology Holdings LLC, priority 2018, dated 2023).
“And” between values parts separate entries of the source, which are not always exact repeats. Equal values may be shown once.

Experiment: Feline safety study: cannabidiol quantification in serum and pharmacokinetics (LC-MS/MS)
Assay type: in vivo
Details: individual cats; oral administration of 2/mg/kg cannabidiol in capsule form
Experimental: On the first day of dosing, blood was collected for a PK analysis from 6 of the 8 cats. The most cooperative cats were selected for the PK analysis. […] Samples were placed into a red top clotting tube with no serum separator. […] The harvested serum was placed in cyrovials stored at −70° C. Each tube was labeled with the cat id, date of collection and collection time point. Samples were shipped overnight on dry ice to the Proteomics & Metabolomics Facility at Colorado State University.
Aliquots of feline serum were delivered to the facility on dry ice and stored at −80° C. upon receipt. […] 200 μL of cold (−20 C) 100% Acetonitrile (spiked with 60 ng/mL of d3-CBD) was added to each sample and vortexed at room temperature for 5 minutes. 200 μL of water was added and vortexed for an additional 5 minutes. 1 ml of 100% hexane was then added to each sample and vortexed for a final 5 minutes. […] The upper hexane layer was transferred to new-labeled glass vials (˜900 uL per sample), carefully avoiding the middle and lower layers. Samples were concentrated to dryness under N2 and resuspended in 60 μL of 100% acetonitrile.
An 8 point standard curve of CBD was generated in matrix background using a blank serum. Concentrations ranged from 0 ng/mL 1000 ng/mL (3.2× dilution series). 50 uL of each spiked serum sample was extracted as above.
LC-MS/MS was performed on a Waters Acquity M-Class UPLC coupled to a Waters Xevo TQ-S triple quadrupole mass spectrometer. […] Flow rate was 3.0 μL/min and injection volume was 2.0 μL. Samples were held at 6° C. in the autosampler, and the column was operated at 70° C. The MS was operated in selected reaction monitoring (SRM) mode, where a parent ion is selected by the first quadrupole, fragmented in the collision cell, then a fragment ion selected for by the third quadrupole. Product ions, collision energies, and cone voltages were optimized for each analyte by direct injection of individual synthetic standards. Inter-channel delay was set to 3 ms. The MS was operated in positive ionization mode with the capillary voltage set to 3.6 kV. […]
All Raw data files were imported into the Skyline open source software package. […] Peak areas were extracted for target compounds detected in biological samples and normalized to the peak area of the appropriate internal standard in each sample using in-house R Script (TQS-tools). CBD concentrations were calculated in nanograms per milliliter of extract (0.06 mL) and then back calculated to nanograms per mL of serum (0.05 mL of serum). […]
LOD are calculated based on the standard deviation of the response (Sy) of the 0 point calibration standard (i.e. 0 ng/mL CBD as an estimate on noise) and the slope of the calibration curve (S) at levels approximating the LOD according to the formula: LOD=3*(Sy/S). […]

C=C(C)[C@@H]1CCC(C)=C[C@H]1c1c(O)cc(CCCCC)cc1O [cannabidiol]
AUC 0-t = Area under the curve (0 time to time of last collection [24 hr]): 265.0 ng·h/mL and 54.2 ng·h/mL and 42.4 ng·h/mL and 212.2 ng·h/mL and 125.0 ng·h/mL and 194.1 ng·h/mL and 134.2 ng·h/mL and 60.2 ng·h/mL | Cmax = Maximum concentration: 8.8 ng/mL and 12.1 ng/mL and 75.3 ng/mL and 40.5 ng/mL and 53.3 ng/mL and 21.2 ng/mL | Tmax = Time of maximum concentration: 4 h and 1 h | T½ el = Half-life of elimination: 2.3 h and 1.3 h and 1.7 h
